Data on 1 compound can be found in patent publication US8119689B2, “Adjuvants on the basis of bisacyloxypropylcystene conjugates and derivatives and their uses in pharmaceutical compositions” (Helmholtz-Zentrum Fuer Infektionsforschung GmbH, priority 2005, dated 2012).

The subject of the experiment is β-gal-specific IgA. Briefly: β-gal-specific secretory IgA in lung and vaginal lavages of i.n. immunized mice. The format is in vivo, BALB/c mice. The following applies: i.n. immunization. As for the experimental part: Differences were statistically significant at p<0.05 (*) with respect to mice receiving antigen alone. One representative out of four independent experiments is shown. SEM is indicated by vertical lines.
At day 38, mice were sacrificed and the final sampling was performed. Vaginal and lung ravages were obtained by flushing the organs with 1 ml of PBS supplemented with 50 mM EDTA, 0.1% BSA, and 10 mM PMSF. Lavages were then centrifuged to remove debris (10 min at 3000×g), and supernatant fluids were stored at −20° C. To determine the concentration of total IgA present in the lung and vaginal ravages, serial dilutions of the corresponding samples were incubated in microtiter plates that were previously coated with goat anti-mouse IgA (Sigma Chemie), as capture antibodies (100 μl/well). Serial dilutions of purified mouse IgA (Sigma Chemie) were used to generate a standard curve.

Consider `CCCCCCCCCCCCCCCC(=O)OCC(CSC[C@H](N)C(=O)N[C@H]1[C@@H](O)[C@H](n2cnc3c(N)ncnc32)O[C@@H]1CO)OC(=O)CCCCCCCCCCCCCCC` (single isomer, unassigned) [BPPcysAda, S-[2,3-bis(palmitoyloxy)-(2S or 2R)-propyl]-L-cysteinylcarboxy-3′Amino-3′-deoxyadenosine], for which the “β-gal-specific IgA in vaginal lavages” value (day 38) is listed as “significantly higher levels”. Besides, the “β-gal-specific IgA in lung lavages (BAL)” value (day 38, vs antigen alone) is “significantly higher levels”.
